Four molecules from patent US20240197729A1, “ALK-5 Inhibitors and Uses Thereof” (Sumitomo Pharma Oncology, Inc., priority 2021, published 2024) can be followed below.

Test [1] has as its system TGF-β1-induced SMAD signaling pathway. The test is described as follows: RD SMAD reporter (RDSR) assay. The conditions noted are these: Homo sapiens; 200 pg/ml rhTGF-beta1, 24 h. Format: cell-based. An excerpt:
TGF-beta (also referred to as TGF-β1) is a multifunctional, highly conserved cytokine with many key functions in development, cell growth and apoptosis, and plays a key role in the tissue repair response and functions as a potent immune modulator. TGF-β signaling is triggered when the activated TGF-β homodimer binds to the TGF-β receptor 2, which in turn leads to the recruitment and phosphorylation of TGF-β receptor 1 (ALK5). Activated TGF-β receptor 1 phosphorylates the signal transduction molecules SMAD2 and SMAD3. These bind to common mediator SMAD4 and translocate to the nucleus where they bind to short conserved DNA sequences called the SMAD binding element and induce the transcription of various target genes.
A stable cellular reporter, the RD SMAD reporter (RDSR), was generated to test the ability of certain compounds disclosed herein to inhibit the canonical TGF-β1-induced SMAD signaling pathway in a cellular context. The RD SMAD reporter (RDSR) cell line was generated by stably integrating the SMAD cellular reporter plasmid (Promega, pGL4.48[luc2P/SBE/Hygro]) into the human rhabdomyosarcoma cell line RD (ATCC, CCL-136). Once SMAD signaling was triggered with, for example, the addition of TGF-beta1, receptor-activated SMADs bind the SMAD binding elements (SBEs) leading to the expression of intracellular luciferase.
The rhabdomyosarcoma line RD (ATCC, CCL-136) was transfected with a SMAD reporter vector (Promega, E3671) and a polyclonal stable cell line was selected using hygromycin B. The transfected vector contained three copies of a Smad-binding element (SBE) that drives transcription of the luciferase reporter gene luc2P (Photinus pyralis). luc2P is a synthetically-derived luciferase sequence with humanized codon optimization that is designed for high expression and reduced anomalous transcription. The luc2P gene contains hPEST, a protein destabilization sequence, which allows luc2P protein levels to respond more quickly than those of luc2 to induction of transcription. The intracellular luciferase is quantified by the addition of equal volume (100 μl) of ONE-GLO substrate (Promega, E6120) and read within ten minutes on the Envision plate reader. The stable RDSR cell line was tested by evaluating the response to human TGF-beta1 (R&D Systems, 7754-BH-005) as well as myostatin (R&D Systems, 788-G8-010/CF) in a concentration-dependent manner after twenty-four hours of stimulation. […] For compound evaluation, the tool compounds (vactosertib and PF-06952229 (a TGFβR1 inhibitor available from MedChem Express HY-136244) were included as positive controls) or test compounds were incubated with cells for one hour at 37° C. then stimulated with 200 pg/ml rhTGF-beta1 for twenty-four hours. The activity of the reporter was determined with the addition of ONE-GLO (Promega) substrate, and luminescence counts were collected on the Envision plate reader (Perkin Elmer). The IC50 or EC50 was calculated using nonlinear regression curve fitting with graph pad prism software.
A comparative RDSR analysis was performed using IC50 values for selected compounds and standards obtained using the RDSR assay protocol described in Example 3.
The tool compounds vactosertib (an ALK5 inhibitor sourced from MedChem Express, HY-19928) and PF-06952229 (a TGFβR1 inhibitor) were included in the study as comparator compounds. Selected example compounds or comparator compounds were incubated with cells for one hour at 37° C. then stimulated with 200 pg/ml rhTGF-beta1 for twenty-four hours. The activity of the reporter was determined by adding ONE-GLO (Promega) substrate, and collecting luminescence counts on the Envision plate reader (Perkin Elmer).
Each of the example compounds and comparator compounds were tested at drug concentrations of from 20 micromolar to 1 nanomolar, and the IC50 value for each was calculated using Graph Pad Prism software. DMSO was used as a negative control and all wells contained normalized DMSO concentrations. […]

Test [2] has as its system phospho-SMAD-2 (Ser465/Ser467). The test is described as follows: A549 xenograft assay, p-SMAD2. It is filed as in vivo, mice. To be noted: for Average % p-SMAD2 (Ser 465/467) of vehicle: tumors 4 h after dosing; for efficacious dose derived from p-SMAD2 inhibition in the A549 xenograft mouse model: per oral gavage. An excerpt:
To test compounds for inhibition of in vivo on-target activity (ALK5/TGF-bR1 inhibition) as well as potential Janus Kinase (JAK) signaling off-target activity, the A549 murine xenograft model was utilized. An ALK5 inhibitor (e.g., vactosertib) is expected to reduce the amount of the TGF-beta signaling molecule phospho-SMAD-2 (pSMAD2) in the A549 xenograft cells. The TGF-beta-mediated phosphorylation of SMAD2 in A549 cells takes place at amino acid residue four hundred and sixty-five and four hundred and sixty-seven (both are serine residues). A JAK inhibitor (e.g., ruxolitinib) is expected to reduce the phosphorylation of signal transducer and activator of transcription (STAT) proteins such as STAT3 at amino acid residue 705 (tyrosine).
At eight weeks of age, female athymic nude mice (purchased from Charles River) were injected with approximately 3.5 million A549 cells (ATCC, CCL-185). Specifically, cells were harvested and resuspended in plain RPMI media (no phenol red added) and Matrigel (Corning 356237) at a one to one ratio, and two hundred-microliters were injected into the right hind flank of each mouse. Tumors were measured every three days by caliper and as tumors reached an average of seventy-eighty millimeters cubed, mice were randomized in groups of three. All compounds were resuspended in 1-methyl-2-pyrrolidinone (Sigma 494496) (10%) plus 20% Solutol (Sigma 42966) in water (90%). Vactosertib and ruxolitinib were included as controls as ALK5 signaling inhibitor and JAK signaling inhibitor, respectively. Both controls were given at seventy-five milligrams per kilogram to three mice. The drug suspensions were sonicated for fifteen minutes to generate a fine particle suspension before being given to the mice. Mice were dosed (per oral gavage) with drug at one hundred, seventy-five, fifty, or ten milligrams per kilogram, with three mice per group. A vehicle control group with three mice was used to establish the baseline level of phospho-SMAD-2 in the tumor xenograft.
Four hours after drug administration, tumors were harvested, snap frozen and stored at negative eighty degrees Celsius until further processing. The phospho-SMAD-2 levels were determined using the Bio-Plex Pro™ Phospho-Smad2 (Ser465/Ser467) Set (BioRad 171V50019M). The phospho STAT3 levels were determined using the bead/antibody set from the MILLIPLEXMAP STAT Cell Signaling Magnetic Bead 5-Plex Kit (Millipore 48-610MAG). Both phospho SMAD-2 levels and phospho STAT3 levels were normalized to ß-Tubulin (MILLIPLEX MAP ß-Tubulin Total Magnetic Bead MAPmate™, Millipore 46-713MAG) or GAPDH (MILLIPLEX MAP GAPDH Total Magnetic Bead MAPmate™, Millipore 46-667MAG) levels from each sample. All analytes were analyzed in a multiplex fashion with the Bio-Plex Pro Cell Signaling Reagent Kit (BioRad 171304006M). Briefly, frozen tumor (fifteen to thirty milligrams) was lysed in 100 μl lysis buffer, processed in bead mill tube, and centrifuged. The resulting lysate was used at 1:50 dilution for the assay according to the manufacturer's instructions. Bead suspension was analyzed using the Luminex system (MAGPIX).

Molecules are shown by their SMILES.

For `Cc1nn(CC(F)(F)F)cc1Nc1cc(Nc2cnnc3c(C)cccc23)ccn1` [Compound 01, N2-[3-methyl-1-(2,2,2-trifluoroethyl)-1H-pyrazol-4-yl]-N4-(8-methylcinnolin-4-yl)pyridine-2,4-diamine], the EC50 – broadly, the concentration needed to bring the measured effect to its halfway point – in test [1] is less than 50 nM. The “Average % p-SMAD2 (Ser 465/467) of vehicle” value (“Average % p-SMAD2” for short) in test [2] (10 mg/kg per oral gavage) came to 97%; in test [2] (50 mg/kg per oral gavage), 33%; in test [2] (75 mg/kg per oral gavage), 13%; in test [2] (100 mg/kg per oral gavage), 8%. Also, the “efficacious dose derived from p-SMAD2 inhibition in the A549 xenograft mouse model” value in test [2] is “seventy-five”.
For the molecule `Clc1cccc2c(Nc3ccnc(Nc4cccc(N5CCOCC5)c4)c3)cnnc12` [Compound 04, N4-(8-chlorocinnolin-4-yl)-N2-[3-(morpholin-4-yl)phenyl]pyridine-2,4-diamine], the EC50 in test [1] is less than 50 nM. Besides, the “Average % p-SMAD2” value in test [2] (10 mg/kg per oral gavage) is given as 69%; in test [2] (50 mg/kg per oral gavage), 13%; in test [2] (75 mg/kg per oral gavage), 6%; in test [2] (100 mg/kg per oral gavage), 7%. For the same molecule, in test [2], the “efficacious dose derived from p-SMAD2 inhibition in the A549 xenograft mouse model” value is listed as “fifty”. The “inhibition of the biomarker p-SMAD2” value in test [2] (seventy-five milligrams per kilogram) was 94%.
On to `Cc1cccc2c(Nc3ccnc(Nc4ccc(N5CCOCC5)cc4)c3)cnnc12` [Compound 05, N4-(8-methylcinnolin-4-yl)-N2-[4-(morpholin-4-yl)phenyl]pyridine-2,4-diamine], for which the EC50 in test [1] is less than 50 nM. The “Average % p-SMAD2” value in test [2] (10 mg/kg per oral gavage) is on record as 136%; in test [2] (50 mg/kg per oral gavage), 74%; in test [2] (75 mg/kg per oral gavage), 11%; in test [2] (100 mg/kg per oral gavage), 13%.
For the molecule `Cc1cccc(-c2[nH]c(CNc3ccccc3F)nc2-c2ccc3ncnn3c2)n1` [Vactosertib, vactosertib, reference compound], in test [2] (75 mg/kg per oral gavage), the “Average % p-SMAD2” value was 32%.
